These test systems were tested with O=C(O)C1(C(=O)O)CCC1.[NH2-].[NH2-].[Pt+2] [CARBOPLATIN] (assay: area under dose-response curve of surviving fraction (unscaled, Aref=0) (surviving fraction x log10(nM)); higher = more resistant). Conditions: exposure time: 5 days; dose range 0.5-1000 nM.
How it was run: (§1)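 Tumour cell lines in 384-well plates were exposed for five days to eight inhibitor concentrations from 0.5 to 1000 nM. Viability was read by CellTiter-Glo luminescence, normalised to DMSO-only wells, in three screens per line. Dose-response survival curves were fitted to surviving fractions by 3-parameter logistic regression in the drc R package. Area under the curve is the unscaled activity area (Aref = 0) over log10 dose.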

In order of rising “area under dose-response curve” value:
1. CAL120 BREAST  3.13
2. MDAMB436 BREAST  3.18
3. SYO1 SYNOVIAL  3.25
4. HCC38 BREAST  3.4
5. KPD BONE  3.52
6. HU09 BONE  3.58
7. SAOS2 BONE  3.68
8. SUM149.B1*.S BREAST  3.85
9. HCC1395 BREAST  3.87
10. 93VU HEADNECK  4.03

What follows are test systems tested with COc1cc2ncnc(Nc3ccc(F)c(Cl)c3)c2cc1OCCCN1CCOCC1 [GEFITINIB] in the same assay as above. Conditions: exposure time: 5 days; dose range 0.5-1000 nM.
How it was run: as §1

In order of rising “area under dose-response curve” value:
1. CASKI CERVIX  2.15
2. HCC1954 BREAST  2.73
3. 93VU HEADNECK  2.74
4. PCI30 HEADNECK  2.84
5. MDAMB361 BREAST  2.9
6. C33A CERVIX  2.98
7. MDAMB436 BREAST  3.12
8. MCF7 BREAST  3.14
9. KPD BONE  3.15
10. SYO1 SYNOVIAL  3.17
11. CAL120 BREAST  3.22
12. 22RV1 PROSTATE  3.34
13. HU09 BONE  3.37
14. HUO3N1 BONE  3.38
15. MDAMB231 BREAST  3.4
16. CAL51 BREAST  3.42
17. NY BONE  3.43
18. HOSMNG BONE  3.45
19. A549 LUNG  3.46
20. T47D BREAST  3.54
21. OS25HAL BONE  3.55
22. NCIH441 LUNG  3.59
23. SUM149.B1*.S BREAST  3.6
24. MDAMB134 BREAST  3.62
25. SAOS2 BONE  3.62
26. HELA CERVIX  3.66
27. OSHN BONE  3.72
28. HCC1395 BREAST  3.91
29. HCC38 BREAST  3.99
30. COLO320DM LARGE INTESTINE  4.07

Each test system was assayed with CC(=O)c1c(C)c2cnc(Nc3ccc(N4CCNCC4)cn3)nc2n(C2CCCC2)c1=O in the same assay as above. Conditions: exposure time: 5 days; dose range 0.5-1000 nM.
How it was run: as §1

In order of rising “area under dose-response curve” value:
1. MDAMB361 BREAST  2.85
2. MDAMB436 BREAST  3.02
3. MCF7 BREAST  3.03
4. HCC1954 BREAST  3.1
5. PCI30 HEADNECK  3.11
6. SYO1 SYNOVIAL  3.14
7. KPD BONE  3.15
8. CAL120 BREAST  3.17
9. CAL51 BREAST  3.21
10. MDAMB231 BREAST  3.24
11. COLO320DM LARGE INTESTINE  3.25
12. CASKI CERVIX  3.41
13. HOSMNG BONE  3.41
14. HUO3N1 BONE  3.42
15. OS25HAL BONE  3.42
16. NY BONE  3.46
17. HU09 BONE  3.47
18. A549 LUNG  3.48
19. HELA CERVIX  3.5
20. 22RV1 PROSTATE  3.53
21. NCIH441 LUNG  3.59
22. T47D BREAST  3.62
23. OSHN BONE  3.62
24. SAOS2 BONE  3.65
25. C33A CERVIX  3.67
26. 93VU HEADNECK  3.72
27. SUM149.B1*.S BREAST  3.76
28. MDAMB134 BREAST  3.84
29. HCC38 BREAST  3.95
30. HCC1395 BREAST  3.96

The test systems below were run with Cc1ccc(-c2cc(C(F)(F)F)nn2-c2ccc(S(N)(=O)=O)cc2)cc1 [CELECOXIB] in the same assay as above. Conditions: exposure time: 5 days; dose range 0.5-1000 nM.
How it was run: as §1

In order of falling “area under dose-response curve” value:
1. HCC38 BREAST  4.1
2. HCC1395 BREAST  4.09
3. SAOS2 BONE  3.78
4. COLO320DM LARGE INTESTINE  3.75
5. SUM149.B1*.S BREAST  3.73
6. OSHN BONE  3.7
7. NCIH441 LUNG  3.66
8. T47D BREAST  3.64
9. HELA CERVIX  3.64
10. MDAMB134 BREAST  3.59
11. OS25HAL BONE  3.54
12. 93VU HEADNECK  3.54
13. A549 LUNG  3.51
14. HCC1954 BREAST  3.51
15. NY BONE  3.48
16. KPD BONE  3.48
17. CAL51 BREAST  3.45
18. MDAMB436 BREAST  3.4
19. PCI30 HEADNECK  3.38
20. MDAMB231 BREAST  3.3
21. HU09 BONE  3.26
22. CAL120 BREAST  3.26
23. C33A CERVIX  3.25
24. HOSMNG BONE  3.18
25. SYO1 SYNOVIAL  3.18
26. CASKI CERVIX  3.15
27. MCF7 BREAST  3.11
28. MDAMB361 BREAST  2.93

What follows are test systems tested with CC[C@@]1(O)C(=O)OCc2c1cc1n(c2=O)Cc2cc3ccccc3nc2-1 [CAMPTOTHECIN] in the same assay as above. Conditions: exposure time: 5 days; dose range 0.5-1000 nM.
How it was run: as §1

In order of falling “area under dose-response curve” value:
1. MDAMB361 BREAST  2.14
2. MDAMB134 BREAST  2.11
3. HCC1395 BREAST  2.09
4. HELA CERVIX  1.99
5. PCI30 HEADNECK  1.92
6. HOSMNG BONE  1.82
7. 93VU HEADNECK  1.8
8. A549 LUNG  1.62
9. MDAMB231 BREAST  1.62
10. MCF7 BREAST  1.55
11. T47D BREAST  1.54
12. 22RV1 PROSTATE  1.47
13. NCIH441 LUNG  1.41
14. HUO3N1 BONE  1.37
15. CAL51 BREAST  1.36
16. C33A CERVIX  1.24
17. SAOS2 BONE  1.2
18. KPD BONE  1.2
19. NY BONE  1.16
20. HCC38 BREAST  1.16
21. COLO320DM LARGE INTESTINE  1.14
22. CASKI CERVIX  1.07
23. MDAMB436 BREAST  1.06
24. CAL120 BREAST  1.05
25. HCC1954 BREAST  0.947
26. OS25HAL BONE  0.945
27. OSHN BONE  0.918
28. HU09 BONE  0.747
29. SYO1 SYNOVIAL  0.528

Reference: the supplement of paper PMC6045584
